Data published in US8840899B2, “Use of mTOR inhibitors to enhance T cell immune responses” (priority 2008, dated 2014).
Entries after “also recorded” stand apart in the source; their conditions may differ. Where two headings read alike, the source gives them in different places.

Legend:
[1] = mice
P14 memory T cells = format: in vivo; conditions: VVGP33 challenge, vs memory cells of untreated mice
[2] = test system: CD62L^low effector CD8^+ T cells (P14 cells); format: in vivo, mice
[3] = test system: antigen-specific CD8^+ T cells; set-up: species or system mice; conditions: mouse, in vivo
[4] = test system: virus-specific CD8^+ T cells; set-up: species or system mice; conditions: mouse, in vivo
[5] = test system: virus-specific CD8^+ T cells; set-up: species or system mice; conditions: mouse, in vivo; remark: listed apart in the source
P14 cells = format: in vivo, mice
[6] = test system: vaccinia virus (VV) that expresses the GP33 epitope (VVgp33); set-up: species or system mice; conditions: mouse, in vivo
[7] = test system: DbGP33 tetramer-positive CD8^+ T cells; experiment: rAd5-LCMV-GP vaccination with low dose rapamycin; format: in vivo, mice
Procedure: Mice were vaccinated with rAd5-LCMV-GP (1×10^10 viral particles) by intramuscular injection on Day 0 and either left untreated or treated with rapamycin at a dose of 0.075 mg/kg from Day −1 to Day 34 (FIG. 19A). The number of DbGP33 tetramer-positive CD8^+ T cells in the spleen of treated and untreated mice was determined by FACS on Day 35 post-vaccination. […] The phenotype of virus-specific CD8^+ T cells was also evaluated by FACS (FIG. 19C).

[8] = rhesus macaques, approximately 10-50 μg/kg/day intramuscularly
[9] = test system: virus-specific CD8^+ T cells; set-up: species or system mice; conditions: mouse, in vivo; remark: listed apart in the source
[10] = test system: FKBP12 RNAi retrovirus transduced P14 cells; set-up: species or system mice; conditions: mouse, in vivo
[11] = test system: virus-specific CD8^+ T cells; set-up: species or system mice; conditions: mouse, in vivo; remark: listed apart in the source
[12] = test system: vaccinia virus-specific CD8^+ T cells; set-up: species or system Rhesus macaques (Macaca mulatta); conditions: rhesus monkey, in vivo
LCMV = test system: LCMV; set-up: species or system mice; conditions: mouse, in vivo
[13] = test system: GP33 epitope-specific CD8^+ T cells; format: in vivo, mice
[14] = test system: virus-specific memory CD4^+ T cells; set-up: species or system mice; conditions: mouse, in vivo
[15] = test system: GP33 epitope-specific memory CD8^+ T cells (P14 cells); experiment: Rapamycin during T cell maintenance phase, adoptively transferred CFSE-labeled memory P14 cells; format: in vivo, mice
[16] = test system: DbGP33 tetramer-positive P14 cells; format: in vivo, mice
P14 memory cells = format: in vivo, mice
[17] = test system: LCMV-specific CD8^+ T cells (P14 cells); set-up: species or system mice; conditions: mouse, in vivo
FKBP12 = format: cell-based, mice; conditions: GFP^+ P14 cells, Day 7 or 8 post-infection
[18] = test system: LCMV-specific P14 transgenic CD8^+ T cells; set-up: species or system mice; conditions: mouse, in vivo
raptor = format: cell-based, mice; conditions: GFP^+ P14 cells, Day 7 or 8 post-infection
[19] = Day 31 post-infection, spleen, relative to control

## CO[C@H]1C[C@@H]2CC[C@@H](C)[C@@](O)(O2)C(=O)C(=O)N2CCCC[C@H]2C(=O)O[C@H]([C@H](C)C[C@@H]2CC[C@@H](O)[C@H](OC)C2)CC(=O)[C@H](C)/C=C(\C)[C@@H](O)[C@@H](OC)C(=O)[C@H](C)C[C@H](C)/C=C/C=C/C=C/1C [rapamycin, (3S,6R,7E,9R,10R,12R,14S,15E,17E,19E,21S,23S,26R,27R,34aS)-9,10,12,13,14,21,22,23,24,25,26,27,32,33,34,34a-hexadecahydro-9,27-dihydroxy-3-[(1R)-2-[(1S,3R,4R)-4-hydroxy-3-methoxycyclohexyl]-1-methylethyl]-10,21-dimethoxy-6,8,12,14,20,26-hexamethyl-23,27-epoxy-3H-pyrido[2,1-c][1,4]-oxaazacyclohentriacontine-1,5,11,28,29(4H,6H,31H)-pentone]
[1]; 0.6 mg/kg (600 μg/kg) intraperitoneally daily
  blood concentration: 40 to 100 ng/mL
[1]; low dose 0.075 mg/kg (75 μg/kg) daily
  blood concentration: 5 to 20 ng/mL
P14 memory T cells
  recall responses of memory CD8^+ T cells generated with rapamycin: superior
[2]; 0.6 mg/kg daily after transfer, blood/PBMC, vs control mice
  CD62L re-expression on transferred virus-specific CD8^+ T cells: quickly re-expressed CD62L; also recorded: re-expressed CD62L much faster
[2]; 0.6 mg/kg daily, Day 26 post-transfer, vs untreated
  absolute number of CD62L^High virus-specific CD8^+ T cells in spleen: greater
[2]; effector to memory transition phase after transfer
  cell division during CD62L re-expression (CFSE): no or minimal cell division; also recorded: no cell division
[3]
  incorporation of BrdU by antigen-specific CD8^+ T cells: minimal incorporation
[4]
  LCMV-specific CD8^+ T cell response: enhanced
  contraction of the T cell response: minimal contraction
  expression of CD127, CD62L, and Bcl-2 on memory CD8^+ T cells: higher levels
  frequency of KLRG-1^Low memory CD8^+ T cells: higher frequency
  number of GP33 epitope-specific CD8^+ T cells in PBMCs: higher number
  number of epitope-specific CD8^+ T cells (GP33, GP276, NP396, NP205, GP118) in spleen: enhanced the number
  numbers of antigen-specific CD8^+ T cells in lymphoid and non-lymphoid tissues: Increased numbers
  phenotype of virus-specific CD8^+ T cells: CD127^High CD62L^High KLRG-1^Low Bcl-2^High phenotype
[5]
  percentage of virus-specific CD8^+ T cells (DbGP33 tetramer) in PBMCs: 2.49%
P14 cells; 0.6 mg/kg daily from Day 8 after VV infection, Day 31, vs control
  number of virus-specific CD8^+ T cells (P14) in spleen: similar
P14 cells; [19]
  expression of CD27 and Bcl-2 on virus-specific CD8^+ T cells: higher
  expression of KLRG-1 on virus-specific CD8^+ T cells: lower
P14 cells; Day 31 post-infection, spleen, vs control
  CD127 and CD62L expression on virus-specific CD8^+ T cells: no significant difference
[6]
  protective immunity (viral control): better
  viral titer in the ovaries: reduction in viral titer
[7]; 0.075 mg/kg Day -1 to Day 34, Day 35 post-vaccination
  number of virus-specific (DbGP33 tetramer-positive) CD8^+ T cells in spleen: significantly increased
[7]; 0.075 mg/kg Day -1 to Day 34, spleen Day 35
  phenotype of virus-specific CD8^+ T cells: markers of high quality memory T cells (CD127^High, CD62L^High, KLRG-1^Low, Bcl-2^High)
[8]
  Blood levels of rapamycin: 5 to 15 ng/mL
[9]
  Bcl-2 expression of virus-specific CD8^+ T cells in lymph node: higher than control
  cell surface markers of virus-specific CD8^+ T cells in lymph node: no significant change
  number of memory cells generated: not affected
  number of virus-specific CD8^+ T cells in the spleen: did not reduce
  number of virus-specific CD8^+ T cells with phenotype of highly functional memory cells: significantly higher number
  phenotype of GP33, GP276 and NP396 epitope-specific CD8^+ T cells in spleen: high quality memory T cells (CD127^High, CD62L^High, KLRG-1^Low, CD27^High, Bcl-2^High)
[10]
  effect of rapamycin treatment on phenotype / memory differentiation of FKBP12 knockdown P14 cells: diminished; also recorded: almost disappeared
  expression of memory markers (CD127, CD62L, Bcl2) on FKBP12 knockdown P14 cells under rapamycin: did not show increased expression
[11]
  Bcl-2 expression in Day 8 effector CD8^+ T cells: higher levels
  death of effector CD8^+ T cells during contraction phase: only minimal death
  phenotype of memory CD8^+ T cells: similar
  proportion of CD127^High KLRG-1^Low cells among Day 8 effector CD8^+ T cells: higher proportion
[12]
  T cell contraction: slower
  number of memory CD8^+ T cells maintained: higher number
LCMV
  LCMV titer relative to untreated mice: significantly increased
[13]; 34 days post-immunization
  phenotype of antigen-specific CD8^+ T cells from spleen: markers of high quality memory T cells (CD127^High, CD62L^High, KLRG-1^Low, Bcl-2^High)
[13]; 165 days after stopping the drug treatment
  memory T cell numbers relative to control: 10 fold
[13]; PBMC and spleen (Day 34), vs control
  number of antigen-specific CD8^+ T cells maintained: higher number
[13]; low dose rapamycin from Day -1, PBMC, vs control
  expansion of GP33 epitope-specific CD8^+ T cells after VLP immunization: expanded similarly
[13]; mouse, in vivo
  magnitude and quality of VLP-induced memory CD8^+ T cells: enhanced both the magnitude and the quality
[14]
  number of IFN-γ^+ CD4^+ T cells upon GP61 peptide stimulation: higher number of IFN-γ^+ cells
[15]; 0.6 mg/kg daily from Day -1, Day 42 post-transfer, vs untreated
  number of virus-specific CD8^+ T cells in the spleen: decreased
[15]; 0.6 mg/kg daily, Day 42 post-transfer, untreated 42.5%
  percentage of virus-specific CD8^+ T cells that divided more than twice (CFSE): 17.8%
[16]; Day 5 post-challenge, vs untreated
  absolute number of DbGP33 tetramer-positive P14 cells in spleen: greater
[16]; rapamycin 25 days, VVGP33 challenge Day 28 post-transfer
  recall responses of memory CD8^+ T cells differentiated with rapamycin: better
[16]; rapamycin for 25 days, VVgp33 challenge Day 28, Day 5 post-challenge, untreated 1.69%
  percentage of DbGP33 tetramer-positive P14 cells in the spleen: 4.93%
P14 memory cells; 30 days post-transfer, control 36.8%
  percentage of P14 memory cells that divided more than twice in spleen: 46.1%
P14 memory cells; memory cells from rapamycin-treated mice (Example 1), up to 30 days post-transfer
  percentage of divided memory T cells in PBMC: increased
P14 memory cells; rapamycin Day -1 to Day 33, 30 days post transfer, vs memory cells of untreated mice
  homeostatic proliferation of memory CD8^+ T cells generated with rapamycin: superior
[17]
  expression of CD127 and CD62L on LCMV-specific CD8^+ T cells: enhanced expression
  percentage of virus-specific CD8^+ T cells in PBMCs: greater
  recall responses: enhanced

## FKBP12 shRNA (guide GCCAAACTGATAATCTCCTCA)
FKBP12
  Expression of FKBP12 protein: significantly reduced

## raptor shRNA (guide GCCCGAGTCTGTGAATGTAAT)
[18]
  expression of phenotypic markers on antigen-specific T cells: identical to what was observed upon knockdown of mTOR
  virus-specific memory T cell phenotype in spleen: high quality memory T cell phenotype (CD127^High, CD62L^high KLRG-1^Low)
raptor
  Expression of raptor protein: significantly reduced
